From patent publication US20100173834A1, “CYCLIC PEPTIDE MELANOCORTIN RECEPTOR LIGANDS” (priority 2007, published 2010)
Where a SMILES comes first, the peptide text is derived from it. Bridges are numbered along the chain shown (N, C = ends). [ ]: non-standard residue; d: D form.

Tests used:
[1] = target: T1, hMC4-R (Homo sapiens, UniProt P32245); assay: Cyclic AMP bioassay, hMC4-R; assay type: cell-based
T1 construct: expressed in transfected cells; host or cells: CHO-K1
Procedure: (§4) Intracellular cyclic AMP (cAMP) levels were determined by an electrochemiluminescence (ECL) assay (Meso Scale Discovery, Gaithersburg, Md.) (referred to hereinafter as “MSD”). […] Transgenic CHO-K1 cells stably expressing hMC receptor subtypes 1, 3, 4 or 5 were dispensed at a density of approximately 7,000 cells/well in 384-well Multi-Array plates (MSD) containing integrated carbon electrodes and coated with anti-cAMP antibody. Increasing concentrations of the test compounds were added and the cells were incubated for approximately 40 minutes at approximately 37° C. […] At the end of the second incubation period read buffer (Tris-buffered solution containing an ECL co-reactant and Triton X-100 at ph 7.8) was added and the cAMP levels in the cell lysates were immediately determined by ECL detection with a Sector Imager 6000 reader® (MSD). Data were analyzed using a computer-assisted non-linear regression analysis (XL fit; IDBS) and reported as either an EC50 value or a Kb value.
(§5) The Kb value reflects the potency of an antagonist and is determined by Schild analysis. In brief, concentration-response curves of an agonist are carried out in the presence of increasing concentrations of an antagonist. […] It is calculated by extrapolating the line on a Schild plot to zero on the y-axis.

[2] = target: T2, hMC5-R (Homo sapiens, UniProt P33032); assay: Cyclic AMP bioassay, hMC5-R; assay type: cell-based
T2 construct: expressed in transfected cells; host or cells: CHO-K1
T2 sequence (P33032 whole entry): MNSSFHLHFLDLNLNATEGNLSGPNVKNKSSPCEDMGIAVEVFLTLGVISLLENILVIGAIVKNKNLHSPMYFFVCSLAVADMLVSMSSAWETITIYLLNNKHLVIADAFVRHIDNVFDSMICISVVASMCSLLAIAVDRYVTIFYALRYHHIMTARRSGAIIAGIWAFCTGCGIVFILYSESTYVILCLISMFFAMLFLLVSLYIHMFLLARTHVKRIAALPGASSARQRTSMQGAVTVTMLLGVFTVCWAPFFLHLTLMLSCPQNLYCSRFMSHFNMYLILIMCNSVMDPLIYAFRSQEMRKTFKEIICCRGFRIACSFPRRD
Procedure: as §4, §5

[3] = target: T2, hMC5-R; assay: Radioligand binding assay, hMC5-R
Procedure: (§1) The CHO-K1 cells expressing the desired hMC-R receptor type were sonicated (Branson, Danbury, Conn.) (etting 7, approximately 30 sec) in ice-cold 50 mM Tris-HCl at pH 7.4 and then centrifuged at 39,000 g for 10 minutes at approximately 4° C. The pellets were resuspended in the same buffer and centrifuged at 50,000 g for 10 minutes at approximately 4° C. The washed pellets containing the cellular membranes were stored at approximately −80° C.
(§2) Filters were washed three times with 50 mM Tris-HCl at pH 7.4 at a temperature of approximately 0-4° C. and then assayed for radioactivity using a Packard Topcount® scintillation counter (GMI, Inc., Ramsey, Minn.).

[4] = target: T3, hMC1-R (Homo sapiens, UniProt Q01726); assay: Cyclic AMP bioassay, hMC1-R
T3 sequence (Q01726 whole entry): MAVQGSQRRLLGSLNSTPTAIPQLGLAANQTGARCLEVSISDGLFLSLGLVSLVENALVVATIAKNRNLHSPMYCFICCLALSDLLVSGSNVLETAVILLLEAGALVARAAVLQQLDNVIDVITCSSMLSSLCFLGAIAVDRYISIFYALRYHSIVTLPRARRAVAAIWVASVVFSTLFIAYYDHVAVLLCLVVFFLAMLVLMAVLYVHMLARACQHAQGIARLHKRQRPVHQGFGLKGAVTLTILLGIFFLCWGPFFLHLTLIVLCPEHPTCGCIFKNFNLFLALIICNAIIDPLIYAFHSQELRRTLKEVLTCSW
Procedure: as §4, §5

[5] = target: T1, hMC4-R; assay: Radioligand binding assay, hMC4-R
Procedure: (§3) The pellets were resuspended in the same buffer and centrifuged at 50,000 g for 10 minutes at approximately 4° C. The washed pellets containing the cellular membranes were stored at approximately −80° C.
as §2

[6] = target: T4, hMC3-R (Homo sapiens, UniProt P41968); assay: Radioligand binding assay, hMC3-R
T4 construct: expressed in transfected cells; host or cells: CHO-K1
T4 sequence (P41968 whole entry): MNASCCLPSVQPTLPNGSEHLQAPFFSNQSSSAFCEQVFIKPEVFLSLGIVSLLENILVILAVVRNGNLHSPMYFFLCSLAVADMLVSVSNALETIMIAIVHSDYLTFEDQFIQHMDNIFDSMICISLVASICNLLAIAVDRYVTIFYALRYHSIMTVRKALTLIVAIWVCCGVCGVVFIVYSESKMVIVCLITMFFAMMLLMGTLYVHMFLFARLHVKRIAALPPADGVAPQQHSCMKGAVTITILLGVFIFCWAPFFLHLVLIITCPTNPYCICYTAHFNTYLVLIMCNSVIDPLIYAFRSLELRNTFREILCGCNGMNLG
Procedure: as §3, §2

[7] = target: T3, hMC1-R; assay: Radioligand binding assay, hMC1-R; design: expressed in transfected cells; host or cells: CHO-K1
Procedure: as §1, §2

[8] = target: T4, hMC3-R; assay: Cyclic AMP bioassay, hMC3-R; assay type: cell-based
Procedure: as §4, §5

[9] = target: human melanocortin 5 receptor (human) (UniProt P33032); assay: cell-based or functional assay
human melanocortin 5 receptor (human), sequence (P33032 whole entry): as the sequence (P33032 whole entry) above

[10] = target: human melanocortin 3 receptor (human) (UniProt P41968); assay: cell-based or functional assay
human melanocortin 3 receptor (human), sequence (P41968 whole entry): as the sequence (P41968 whole entry) above

[11] = target: human melanocortin 3 receptor (human) (UniProt P41968); assay: competitive displacement of [125I]-NDP-alpha-MSH, membranes of CHO-K1 cells expressing hMC3-R
[12] = target: human melanocortin 1 receptor (human) (UniProt Q01726); assay: cell-based or functional assay
human melanocortin 1 receptor (human), sequence (Q01726 whole entry): as the sequence (Q01726 whole entry) above

[13] = target: human melanocortin 4 receptor (human) (UniProt P32245); assay: cell-based or functional assay
human melanocortin 4 receptor (human), sequence (P32245 whole entry): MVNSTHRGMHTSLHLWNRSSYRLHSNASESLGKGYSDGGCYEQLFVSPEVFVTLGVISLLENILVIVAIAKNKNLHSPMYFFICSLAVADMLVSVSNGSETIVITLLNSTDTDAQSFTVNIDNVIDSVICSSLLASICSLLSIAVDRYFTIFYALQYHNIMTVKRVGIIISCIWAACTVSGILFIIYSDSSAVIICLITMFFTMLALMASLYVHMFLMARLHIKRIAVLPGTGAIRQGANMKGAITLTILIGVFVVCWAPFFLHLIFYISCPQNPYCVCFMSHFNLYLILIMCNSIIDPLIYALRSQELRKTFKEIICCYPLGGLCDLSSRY

T1 sequence (P32245 whole entry): as above

Row | Compound | EC50 [1] [nM] | EC50 [2] [nM] | Ki [3] [nM] | EC50 [4] [nM] | Ki [5] [nM] | Ki [6] [nM] | Ki [7] [nM] | EC50 [8] [nM] | EC50, cAMP bioassay (ECL) in CHO-K1 cells expressing hMC5-R [9] [nM] | EC50, cAMP bioassay (ECL) in CHO-K1 cells expressing hMC3-R [10] [nM] | Ki [11] [nM] | EC50, cAMP bioassay (ECL) in CHO-K1 cells expressing hMC1-R [12] [nM] | EC50, cAMP bioassay (ECL) in CHO-K1 cells expressing hMC4-R [13] [nM]
1 | CC(=O)N[C@@H](Cc1c[nH]c2ccccc12)C(=O)N[C@@H](CCCNC(=N)N)C(=O)N[C@H]1CSSC[C@@H](C(N)=O)NC(=O)[C@H](Cc2c[nH]c3ccccc23)NC(=O)[C@H](CCCNC(=N)N)NC(=O)[C@@H](Cc2ccccc2)NC(=O)[C@H](Cc2c[nH]cn2)NC(=O)[C@@H](C)NC1=O [Ac-Trp-Arg-c(Cys-D-Ala-His-D-Phe-Arg-Trp-Cys)-NH2] (Ac-WRC[dA]H[dF]RWC-NH2; disulfide 3-9) | 0.219 | 2580 | 1470 | 5.78 | 2.25 | 42 | 4.7 | 3.95 | – | – | – | – | –
2 | Ac-Tyr-Arg-c(Cys-D-Ala-His-D-Phe-Arg-Trp-Cys)-NH2 (peptide) | – | – | – | – | – | – | – | – | 1540 | 2.39 | 21.2 | – | –
3 | Ac-1-Nal-Arg-c(Cys-D-Ala-His-D-Phe-Arg-Trp-Cys)-NH2 (peptide) | – | – | – | – | – | – | – | – | 1320 | 4.21 | – | 8.67 | 0.363
4 | CC(=O)N[C@@H](Cc1ccccc1)C(=O)N[C@@H](CCCNC(=N)N)C(=O)N[C@H]1CSSC[C@@H](C(N)=O)NC(=O)[C@H](Cc2c[nH]c3ccccc23)NC(=O)[C@H](CCCNC(=N)N)NC(=O)[C@@H](Cc2ccccc2)NC(=O)[C@H](Cc2c[nH]cn2)NC(=O)[C@@H](C)NC1=O [Ac-Phe-Arg-c(Cys-D-Ala-His-D-Phe-Arg-Trp-Cys)-NH2] (Ac-FRC[dA]H[dF]RWC-NH2; disulfide 3-9) | – | – | 491 | – | 2.34 | 14.8 | 1.48 | – | – | – | – | – | –
5 | CC(=O)N[C@@H](Cc1cccc2ccccc12)C(=O)N[C@@H](CCCNC(=N)N)C(=O)N[C@H]1CSSC[C@@H](C(N)=O)NC(=O)[C@H](Cc2c[nH]c3ccccc23)NC(=O)[C@H](CCCNC(=N)N)NC(=O)[C@@H](Cc2ccccc2)NC(=O)[C@H](Cc2c[nH]cn2)NC(=O)[C@@H](C)NC1=O [Ac-1-Nal-Arg-c(Cys-D-Ala-His-D-Phe-Arg-Trp-Cys)-NH2] | 0.363 | 1320 | 888 | 8.67 | 1.53 | 36.4 | 6.27 | 4.21 | – | – | – | – | –
6 | CC(=O)N[C@@H](Cc1c(F)c(F)c(F)c(F)c1F)C(=O)N[C@@H](CCCNC(=N)N)C(=O)N[C@H]1CSSC[C@@H](C(N)=O)NC(=O)[C@H](Cc2c[nH]c3ccccc23)NC(=O)[C@H](CCCNC(=N)N)NC(=O)[C@@H](Cc2ccccc2)NC(=O)[C@H](Cc2c[nH]cn2)NC(=O)[C@@H](C)NC1=O [Ac-Pff-Arg-c(Cys-D-Ala-His-D-Phe-Arg-Trp-Cys)-NH2] | – | – | 786 | – | 1.95 | 1.33 | 0.323 | – | – | – | – | – | –
7 | CC(=O)N[C@@H](Cc1ccc(O)cc1)C(=O)N[C@@H](CCCNC(=N)N)C(=O)N[C@H]1CSSC[C@@H](C(N)=O)NC(=O)[C@H](Cc2c[nH]c3ccccc23)NC(=O)[C@H](CCCNC(=N)N)NC(=O)[C@@H](Cc2ccccc2)NC(=O)[C@H](Cc2c[nH]cn2)NC(=O)[C@@H](C)NC1=O [Ac-Tyr-Arg-c(Cys-D-Ala-His-D-Phe-Arg-Trp-Cys)-NH2] | – | 1540 | 714 | – | – | – | – | – | – | – | – | – | –
8 | Ac-2-Nal-Arg-c(Cys-D-Ala-His-D-Phe-Arg-Trp-Cys)-NH2 (peptide) | – | – | – | – | – | – | – | – | 1730 | 6.11 | – | 9.66 | 0.275
9 | CC(=O)N[C@@H](Cc1ccc2ccccc2c1)C(=O)N[C@@H](CCCNC(=N)N)C(=O)N[C@H]1CSSC[C@@H](C(N)=O)NC(=O)[C@H](Cc2c[nH]c3ccccc23)NC(=O)[C@H](CCCNC(=N)N)NC(=O)[C@@H](Cc2ccccc2)NC(=O)[C@H](Cc2c[nH]cn2)NC(=O)[C@@H](C)NC1=O [Ac-2-Nal-Arg-c(Cys-D-Ala-His-D-Phe-Arg-Trp-Cys)-NH2] | 0.275 | 1730 | 864 | 9.66 | 2.02 | 34.9 | 6.09 | 6.11 | – | – | – | – | –
10 | Ac-Trp-Arg-c(Cys-D-Ala-His-D-Phe-Arg-Trp-Cys)-NH2 (peptide) | – | – | – | – | – | – | – | – | 2580 | 3.95 | – | 5.78 | 0.219
